{"source": "PubChem BioAssay (NCI)", "experiment_in_all_cases": "inhibition of tumour cell growth, NCI panel, 384-well format", "key": {"M14 melanoma": {"tested_on": "M14 melanoma"}, "UACC-257 melanoma": {"tested_on": "UACC-257 melanoma"}, "LOX IMVI melanoma": {"tested_on": "LOX IMVI melanoma"}, "COLO 205 colon": {"tested_on": "COLO 205 colon"}, "CAKI-1 renal": {"tested_on": "CAKI-1 renal"}, "U251 glioblastoma": {"tested_on": "U251 glioblastoma"}, "NCI-H522 lung": {"tested_on": "NCI-H522 lung"}, "SK-MEL-2 melanoma": {"tested_on": "SK-MEL-2 melanoma"}, "SK-OV-3 ovarian": {"tested_on": "SK-OV-3 ovarian"}, "NCI-H322M lung": {"tested_on": "NCI-H322M lung"}, "CCRF-CEM leukemia": {"tested_on": "CCRF-CEM leukemia"}, "786-0 renal": {"tested_on": "786-0 renal"}, "NCI/ADR-RES ovarian": {"tested_on": "NCI/ADR-RES ovarian"}}, "note": "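GI50 = concentration required for 50% inhibition of growth. TGI marks complete inhibition of growth.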", "data": [{"smiles": "CNC(=O)c1cc(Oc2ccc(NC(=O)Nc3ccc(Cl)c(C(F)(F)F)c3)cc2)ccn1", "values": [{"measurement": "GI50", "setting": "M14 melanoma", "result": 2.48, "unit": "µM"}, {"measurement": "TGI", "setting": "M14 melanoma", "result": 5.22, "unit": "µM"}, {"measurement": "GI50", "setting": "UACC-257 melanoma", "result": 2.32, "unit": "µM"}, {"measurement": "TGI", "setting": "UACC-257 melanoma", "result": 4.62, "unit": "µM"}, {"measurement": "GI50", "setting": "LOX IMVI melanoma", "result": 2.19, "unit": "µM"}, {"measurement": "TGI", "setting": "LOX IMVI melanoma", "result": 4.56, "unit": "µM"}, {"measurement": "GI50", "setting": "COLO 205 colon", "result": 2.19, "unit": "µM"}, {"measurement": "TGI", "setting": "COLO 205 colon", "result": 4.66, "unit": "µM"}, {"measurement": "GI50", "setting": "CAKI-1 renal", "result": 2.19, "unit": "µM"}, {"measurement": "TGI", "setting": "CAKI-1 renal", "result": 4.74, "unit": "µM"}, {"measurement": "GI50", "setting": "U251 glioblastoma", "result": 2, "unit": "µM"}, {"measurement": "TGI", "setting": "U251 glioblastoma", "result": 3.74, "unit": "µM"}, {"measurement": "GI50", "setting": "NCI-H522 lung", "result": 2.04, "unit": "µM"}, {"measurement": "TGI", "setting": "NCI-H522 lung", "result": 4.71, "unit": "µM"}, {"measurement": "GI50", "setting": "SK-MEL-2 melanoma", "result": 2.05, "unit": "µM"}, {"measurement": "TGI", "setting": "SK-MEL-2 melanoma", "result": 3.49, "unit": "µM"}, {"measurement": "GI50", "setting": "SK-OV-3 ovarian", "result": 3.93, "unit": "µM"}, {"measurement": "TGI", "setting": "SK-OV-3 ovarian", "result": 10.4, "unit": "µM"}, {"measurement": "GI50", "setting": "NCI-H322M lung", "result": 2.61, "unit": "µM"}, {"measurement": "TGI", "setting": "NCI-H322M lung", "result": 5.16, "unit": "µM"}, {"measurement": "GI50", "setting": "CCRF-CEM leukemia", "result": 1.59, "unit": "µM"}, {"measurement": "TGI", "setting": "CCRF-CEM leukemia", "result": 2.95, "unit": "µM"}, {"measurement": "GI50", "setting": "786-0 renal", "result": 1.89, "unit": "µM"}, {"measurement": "TGI", "setting": "786-0 renal", "result": 3.7, "unit": "µM"}, {"measurement": "GI50", "setting": "NCI/ADR-RES ovarian", "result": 2.12, "unit": "µM"}, {"measurement": "TGI", "setting": "NCI/ADR-RES ovarian", "result": 4.39, "unit": "µM"}]}]}
